Test results published in patent publication US20230089368A1, “POLYAROMATIC UREA DERIVATIVES AND THEIR USE IN THE TREATMENT OF MUSCLE DISEASES” (ANAGENESIS BIOTECHNOLOGIES S.A.S., priority 2019, published 2023).

Tests used:
[1] = tested on: muscle progenitors (hMP) from DMD hiPSC or WT hiPSC; assay: Myotube assay: myogenic activity (total myotube area per well); assay type: cell-based, human; conditions: for Emax: Homo sapiens, 72 h, myotube assay, compounds incubated 3 days, read-out: MA (normalized Myotube Area, efficacy)
Summary of the method: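 DMD or WT hiPSC-derived muscle progenitors plated on collagen I in K5 medium with 5 μM Y-27632, treated with compound (1.5 nM–30 μM) for 3 days at 37° C. Cells were fixed, stained for alpha-actinin and imaged for total myotube area per well. EC50 and normalized myotube area (MA) taken from duplicate-averaged data.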

[2] = tested on: satellite-like cells (Pax7-positive cells) in hMP; assay: Myotube assay: Pax7-positive (satellite-like) cell quantification; assay type: cell-based, human; set-up: key to Pax7% (pool of Pax7-positive cells) / Pax7: −: Depletes the pool of cells, while positively affects the myotubes; +: Maintains or increases the pool of cells, with at least 1 of the highest concentration known to be cytotoxic; ++: Maintains or increases the pool of cells, without any toxicity; conditions: for Pax7% (pool of Pax7-positive cells): myotube assay, compounds incubated 3 days
Summary of the method: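 DMD hiPSC-derived muscle progenitors (hMP) proliferated 4 days, then plated on collagen I in K5 medium with 5 μM Y-27632. Compound added at 1.5 nM–30 μM for 3 days at 37° C, then cells fixed and immunostained. Pax7-positive cells counted as percentage of total nuclei, duplicates averaged.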

CSc1cc(Oc2ccnc3[nH]c(=O)cnc23)ccc1NC(=O)Nc1cc(C(C)(C)C)nn1-c1ccc(CN2CCOCC2)cc1 [(dd), 1-(3-(tert-butyl)-1-(4-(morpholinomethyl)phenyl)-1H-pyrazol-5-yl)-3-(2-(methylthio)-4-((3-oxo-3,4-dihydropyrido[2,3-b]pyrazin-8-yl)oxy)phenyl)urea]
Emax [1]: ≥ 75%
Pax7% (pool of Pax7-positive cells) [2]: +

CCOC(=O)Nc1cc(Oc2ccc(NC(=O)Nc3cc(C(C)(C)C)no3)c(SC)c2)ccn1 [(de), Ethyl (4-(4-(3-(3-(tert-butyl)isoxazol-5-yl)ureido)-3-(methylthio)phenoxy)pyridin-2-yl)carbamate]
Emax [1]: ≥ 75%
Pax7% (pool of Pax7-positive cells) [2]: +

CCOC(=O)Nc1cc(Oc2ccc(NC(=O)Nc3ncc(C(C)(C)C)s3)c(SC)c2)ccn1 [(df), Ethyl (4-(4-(3-(5-(tert-butyl)thiazol-2-yl)ureido)-3-(methylthio)phenoxy)pyridin-2-yl)carbamate]
Emax [1]: ≥ 75%
Pax7% (pool of Pax7-positive cells) [2]: +

CC(C)(C)c1cc(NC(=O)Nc2ccc(Oc3ccnc4c3CCC(=O)N4)c3ccccc23)on1 [(dg), 1-(3-(tert-butyl)isoxazol-5-yl)-3-(4-((7-oxo-5,6,7,8-tetrahydro-1,8-naphthyridin-4-yl)oxy)naphthalen-1-yl)urea]
Emax [1]: ≥ 75%
Pax7% (pool of Pax7-positive cells) [2]: +

CSc1cc(Oc2ccnc3[nH]c(=O)cnc23)ccc1NC(=O)Nc1cc(C(C)(C)C)on1 [(dh), 1-(5-(tert-butyl)isoxazol-3-yl)-3-(2-(methylthio)-4-((3-oxo-3,4-dihydropyrido[2,3-b]pyrazin-8-yl)oxy)phenyl)urea]
Emax [1]: ≥ 75%
Pax7% (pool of Pax7-positive cells) [2]: +

CCOC(=O)Nc1cc(Oc2ccc(NC(=O)Nc3cc(C(C)(C)C)on3)c(SC)c2)ccn1 [(di), Ethyl (4-(4-(3-(5-(tert-butyl)isoxazol-3-yl)ureido)-3-(methylthio)phenoxy)pyridin-2-yl)carbamate]
Emax [1]: ≥ 75%
Pax7% (pool of Pax7-positive cells) [2]: ++

CC(=O)Nc1cc(Oc2ccc(NC(=O)Nc3cc(C(C)(C)C)nn3-c3ccccc3)c3ccccc23)ccn1 [(dj), N-(4-((4-(3-(3-(tert-butyl)-1-phenyl-1H-pyrazol-5-yl)ureido)naphthalen-1-yl)oxy)pyridin-2-yl)acetamide]
Emax [1]: ≥ 75%
Pax7% (pool of Pax7-positive cells) [2]: +

CSc1cc(Oc2ccncc2)ccc1NC(=O)Nc1cc(C(C)(C)C)nn1-c1ccccc1 [(dk), 1-(3-(tert-butyl)-1-phenyl-1H-pyrazol-5-yl)-3-(2-(methylthio)-4-(pyridin-4-yloxy)phenyl)urea]
Emax [1]: 25 to 50%
Pax7% (pool of Pax7-positive cells) [2]: ++

CSc1cc(Oc2ccnc(NS(C)(=O)=O)c2)ccc1NC(=O)Nc1cc(C(C)(C)C)no1 [(dl), N-(4-(4-(3-(3-(tert-butyl)isoxazol-5-yl)ureido)-3-(methylthio)phenoxy)pyridin-2-yl)methanesulfonamide]
Emax [1]: ≥ 75%
Pax7% (pool of Pax7-positive cells) [2]: ++

CSc1cc(Oc2ccnc3[nH]c(=O)[nH]c23)ccc1NC(=O)Nc1cc(C(C)(C)C)nn1-c1ccccc1 [(dm), 1-(3-(tert-butyl)-1-phenyl-1H-pyrazol-5-yl)-3-(2-(methylthio)-4-((2-oxo-2,3-dihydro-1H-imidazo[4,5-b]pyridin-7-yl)oxy)phenyl)urea]
Emax [1]: ≥ 75%
Pax7% (pool of Pax7-positive cells) [2]: −

CSc1cc(NC(=O)Nc2cc(C(C)(C)C)nn2-c2ccccc2)ccc1Oc1ccnc2[nH]c(=O)cnc12 [(dn), 1-(3-(tert-butyl)-1-phenyl-1H-pyrazol-5-yl)-3-(3-(methylthio)-4-((3-oxo-3,4-dihydropyrido[2,3-b]pyrazin-8-yl)oxy)phenyl)urea]
Emax [1]: ≥ 75%
Pax7% (pool of Pax7-positive cells) [2]: +

CSc1cc(Oc2ccnc3[nH]c(=O)ccc23)ccc1NC(=O)Nc1cc(C(C)(C)C)nn1-c1ccccc1 [(do), 1-(3-(tert-butyl)-1-phenyl-1H-pyrazol-5-yl)-3-(2-(methylthio)-4-((7-oxo-7,8-dihydro-1,8-naphthyridin-4-yl)oxy)phenyl)urea]
Emax [1]: ≥ 75%
Pax7% (pool of Pax7-positive cells) [2]: +

CSc1cc(Oc2ccnc3[nH]c(=O)cnc23)ccc1NC(=O)Nc1cc(C(C)(C)C)nn1-c1ccc(CN(C)C)cc1 [(dp), 1-(3-(tert-butyl)-1-(4-((dimethylamino)methyl)phenyl)-1H-pyrazol-5-yl)-3-(2-(methylthio)-4-((3-oxo-3,4-dihydropyrido[2,3-b]pyrazin-8-yl)oxy)phenyl)urea]
Emax [1]: ≥ 75%
Pax7% (pool of Pax7-positive cells) [2]: +

CSc1cc(Oc2ccnc(NC(=O)CO)c2)ccc1NC(=O)Nc1cc(C(C)(C)C)nn1-c1ccccc1 [(dq), N-(4-(4-(3-(3-(tert-butyl)-1-phenyl-1H-pyrazol-5-yl)ureido)-3-(methylthio)phenoxy)pyridin-2-yl)-2-hydroxyacetamide]
Emax [1]: ≥ 75%
Pax7% (pool of Pax7-positive cells) [2]: +

O=C(Nc1ccc(Oc2ccnc3[nH]c(=O)cnc23)cc1F)Nc1cc(C2CC2)nn1-c1ccccc1 [(e), 1-(3-cyclopropyl-1-phenyl-1H-pyrazol-5-yl)-3-(2-fluoro-4-((3-oxo-3,4-dihydropyrido[2,3-b]pyrazin-8-yl)oxy)phenyl)urea]
Emax [1]: 25 to 50%
Pax7% (pool of Pax7-positive cells) [2]: ++

CC1(c2cc(NC(=O)Nc3ccc(Oc4ccnc5[nH]c(=O)cnc45)cc3F)n(-c3ccccc3)n2)COC1 [(f), 1-(2-fluoro-4-((3-oxo-3,4-dihydropyrido[2,3-b]pyrazin-8-yl)oxy)phenyl)-3-(3-(3-methyloxetan-3-yl)-1-phenyl-1H-pyrazol-5-yl)urea]
Emax [1]: 50 to 75%
Pax7% (pool of Pax7-positive cells) [2]: ++

CC(C)Cc1cc(NC(=O)Nc2ccc(Oc3ccnc4[nH]c(=O)cnc34)cc2F)n(-c2ccccc2)n1 [(g), 1-(2-fluoro-4-((3-oxo-3,4-dihydropyrido[2,3-b]pyrazin-8-yl)oxy)phenyl)-3-(3-isobutyl-1-phenyl-1H-pyrazol-5-yl)urea]
Emax [1]: ≥ 75%
Pax7% (pool of Pax7-positive cells) [2]: +

CC(C)(C)c1cc(NC(=O)Nc2ccc(Oc3ccnc4[nH]c(=O)cnc34)cc2F)[nH]n1 [(h), 1-(3-(tert-butyl)-1H-pyrazol-5-yl)-3-(2-fluoro-4-((3-oxo-3,4-dihydropyrido[2,3-b]pyrazin-8-yl)oxy)phenyl)urea]
Emax [1]: 25 to 50%
Pax7% (pool of Pax7-positive cells) [2]: +

CC(C)n1nc(C(C)(C)C)cc1NC(=O)Nc1ccc(Oc2ccnc3[nH]c(=O)cnc23)cc1F [(i), 1-(3-(tert-butyl)-1-isopropyl-1H-pyrazol-5-yl)-3-(2-fluoro-4-((3-oxo-3,4-dihydropyrido[2,3-b]pyrazin-8-yl)oxy)phenyl)urea]
total myotube surface/well (myogenic activity) ([1]; DMD hMP, 10 concentrations 1.5 nM to 30 μM, 3 days, FIG. 2): dose-dependent increase
Emax [1]: 50 to 75%
percentage of Pax7-positive cells ([2]; DMD hMP, 10 concentrations 1.5 nM to 30 μM, 3 days, FIG. 3): dose-dependent increase
Pax7% (pool of Pax7-positive cells) [2]: +

CC(C)(C)c1cc(NC(=O)Nc2ccc(Oc3ccnc4[nH]c(=O)cnc34)cc2F)n(Cc2ccccc2)n1 [(j), 1-(1-benzyl-3-(tert-butyl)-1H-pyrazol-5-yl)-3-(2-fluoro-4-((3-oxo-3,4-dihydropyrido[2,3-b]pyrazin-8-yl)oxy)phenyl)urea]
Emax [1]: 50 to 75%
Pax7% (pool of Pax7-positive cells) [2]: ++

CC(C)(C)c1cc(NC(=O)Nc2ccc(Oc3ccnc4[nH]c(=O)cnc34)cc2F)n(CCN2CCOCC2)n1 [(k), 1-(3-(tert-butyl)-1-(2-morpholinoethyl)-1H-pyrazol-5-yl)-3-(2-fluoro-4-((3-oxo-3,4-dihydropyrido[2,3-b]pyrazin-8-yl)oxy)phenyl)urea]
Emax [1]: 50 to 75%
Pax7% (pool of Pax7-positive cells) [2]: ++

CC(C)(C)c1cc(NC(=O)Nc2ccc(Oc3ccnc4[nH]c(=O)cnc34)cc2F)n(-c2cccnc2)n1 [(l), 1-(3-(tert-butyl)-1-(pyridin-3-yl)-1H-pyrazol-5-yl)-3-(2-fluoro-4-((3-oxo-3,4-dihydropyrido[2,3-b]pyrazin-8-yl)oxy)phenyl)urea]
Emax [1]: 50 to 75%
Pax7% (pool of Pax7-positive cells) [2]: +

CC(C)(C)c1cc(NC(=O)Nc2ccc(Oc3ccnc4[nH]c(=O)cnc34)cc2F)n(-c2ncccn2)n1 [(m), 1-(3-(tert-butyl)-1-(pyrimidin-2-yl)-1H-pyrazol-5-yl)-3-(2-fluoro-4-((3-oxo-3,4-dihydropyrido[2,3-b]pyrazin-8-yl)oxy)phenyl)urea]
Emax [1]: 50 to 75%
Pax7% (pool of Pax7-positive cells) [2]: ++

CC(C)(C)c1cc(NC(=O)Nc2ccc(Oc3ccnc4[nH]c(=O)cnc34)cc2F)n(-c2ccc3ncccc3c2)n1 [(n), 1-(3-(tert-butyl)-1-(quinolin-6-yl)-1H-pyrazol-5-yl)-3-(2-fluoro-4-((3-oxo-3,4-dihydropyrido[2,3-b]pyrazin-8-yl)oxy)phenyl)urea]
Emax [1]: ≥ 75%
Pax7% (pool of Pax7-positive cells) [2]: +

CC(=O)n1nc(C(C)(C)C)cc1NC(=O)Nc1ccc(Oc2ccnc3[nH]c(=O)cnc23)cc1F [(o), 1-(1-acetyl-3-(tert-butyl)-1H-pyrazol-5-yl)-3-(2-fluoro-4-((3-oxo-3,4-dihydropyrido[2,3-b]pyrazin-8-yl)oxy)phenyl)urea]
Emax [1]: 25 to 50%
Pax7% (pool of Pax7-positive cells) [2]: ++

CC(C)(C)c1nc(NC(=O)Nc2ccc(Oc3ccnc4[nH]c(=O)cnc34)cc2F)n(-c2ccccc2)n1 [(p), 1-(3-(tert-butyl)-1-phenyl-1H-1,2,4-triazol-5-yl)-3-(2-fluoro-4-((3-oxo-3,4-dihydropyrido[2,3-b]pyrazin-8-yl)oxy)phenyl)urea]
Emax [1]: 25 to 50%
Pax7% (pool of Pax7-positive cells) [2]: ++
